Experiments:
[1] = biological target: T1, human DP2 receptor (Homo sapiens, UniProt Q9Y5Y4); assay: Prostaglandin D2 binding inhibition assay (scintillation proximity assay, 3H PGD2, membranes of transfected CHO cells); settings: SPA, 5.5 nM 3H PGD2, CHO-K1 FLP-In human DP2 membranes; upper limit determinable 30 μM; read-out: IC50 ranges for inhibition of PGD2 binding to human DP2
T1 construct: expressed in transfected cells; host or cells: CHO-K1 FLP-In (Invitrogen, catalog no. R758-07), stably transfected
T1 sequence (Q9Y5Y4 1-395): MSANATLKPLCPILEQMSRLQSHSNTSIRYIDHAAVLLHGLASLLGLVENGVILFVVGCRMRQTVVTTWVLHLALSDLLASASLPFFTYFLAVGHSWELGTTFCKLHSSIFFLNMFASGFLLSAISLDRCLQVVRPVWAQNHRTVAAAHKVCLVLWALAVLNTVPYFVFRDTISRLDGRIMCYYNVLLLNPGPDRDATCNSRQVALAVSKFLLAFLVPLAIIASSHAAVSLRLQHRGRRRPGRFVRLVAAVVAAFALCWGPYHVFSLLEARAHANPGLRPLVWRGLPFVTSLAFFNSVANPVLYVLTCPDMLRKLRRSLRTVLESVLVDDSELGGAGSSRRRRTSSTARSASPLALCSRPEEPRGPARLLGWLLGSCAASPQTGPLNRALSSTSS
Method in brief: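 Membranes (5 μg) from CHO-K1 cells stably expressing human DP2 were mixed with WGA SPA beads and 5.5 nM 3H PGD2 in Tris buffer with 10 mM MgCl2, 100 mM NaCl, 0.1% BSA, plus compound. After 60 min at room temperature, CPM were read; IC50 from two-parameter nonlinear regression.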

[2] = biological target: T1, human DP2 receptor; assay: Measurement of inhibition of intracellular cAMP induction (LANCE cAMP TR-FRET); type: cell-based; settings: human DP2 cells
Method: The ability of compounds to act as antagonists or agonists at the human DP2 receptor was determined by measuring changes in intracellular cAMP levels using a LANCE cAMP detection kit (PerkinElmer, catalog no. AD0264) utilizing time-resolved fluorescence resonance energy transfer (TR-FRET).
Human DP2 cells were grown as described above. Cells were diluted to 2×10^5 cells/mL, and pre-incubated with 0.5 mM […] or IBMX (Sigma, catalog no. I7018). Antibody was added to all the cells as per the manufacturer's instructions. For antagonist experiments, cells were then pre-stimulated for 15 minutes with 4 μM of the water soluble forskolin derivative NKH-477 (Tocris, catalog no. 1603) to increase intracellular cAMP levels. An aliquot of cells was removed for use in uninduced controls. […] After a three hour equilibration, plates were read on an Envision multi-mode detector (PerkinElmer). TR-FRET was measured using a 330-380 nm excitation filter, 615 and 665 nm emission filters, and a 380 nm dichroic mirror set at a Z-height of 11 mm.
The cAMP concentration in each well was back-calculated from a cAMP standard curve run concurrently with each assay. Cyclic AMP responses were expressed as a percent of the difference between the maximum and minimum responses, determined from the induced and uninduced controls, respectively. […]

Row | IC50 [1] [µM] | EC50 ([2]; 4 μM NKH-477 pre-stimulation, 30 nM PGD2, read-out: EC50, antagonism of intracellular cAMP induction) [µM] | mode of action at human DP2 (antagonist or agonist) ([2]; intracellular cAMP) | Compound
1 | < 1 | < 1 | antagonist | CS(=O)(=O)c1ccccc1S(=O)(=O)N1CCC(n2c(=O)n(CC(=O)O)c3cccnc32)CC1 [Compound 63, 2-(3-(1-(2-(methylsulfonyl)phenyl-sulfonyl)piperidin-4-yl)-2-oxo-2,3-dihydro-1H-imidazo[4,5-b]pyridin-1-yl)acetic acid]
2 | > 30 |  |  | O=C(O)Cn1c(=O)n(C2CCN(S(=O)(=O)c3ccccc3Cl)CC2)c2cccnc21 [Compound 133, 2-(1-(1-(2-chlorophenylsulfonyl)piperidin-4-yl)-2-oxo-1H-imidazo[4,5-b]pyridin-3(2H)-yl)acetic acid]
3 | > 30 |  |  | CS(=O)(=O)c1ccccc1S(=O)(=O)N1CCC(n2c(=O)n(CC(=O)O)c3ncccc32)CC1 [Compound 135, 2-(1-(1-(2-(methylsulfonyl)phenyl-sulfonyl)piperidin-4-yl)-2-oxo-1H-imidazo[4,5-b]pyridin-3(2H)-yl)acetic acid]
4 | > 30 |  |  | O=C(O)Cn1c(=O)n(C2CCN(S(=O)(=O)c3ccc(F)cc3Cl)CC2)c2ccncc21 [Compound 140, 2-(1-(1-(2-chloro-4-fluorophenylsulfonyl)piperidin-4-yl)-2-oxo-1H-imidazo[4,5-c]pyridin-3(2H)-yl)acetic acid]
5 | > 30 |  |  | CS(=O)(=O)c1ccccc1S(=O)(=O)N1CCC(n2c(=O)n(CC(=O)O)c3cnccc32)CC1 [Compound 143, 2-(1-(1-(2-(methylsulfonyl)phenylsulfonyl)piperidin-4-yl)-2-oxo-1H-imidazo[4,5-c]pyridin-3(2H)-yl)acetic acid]

The remaining lines, values behind:

Row | Compound | IC50 [1] [µM] | EC50 ([2]; 4 μM NKH-477 pre-stimulation, 30 nM PGD2, read-out: EC50, antagonism of intracellular cAMP induction) [µM] | mode of action at human DP2 (antagonist or agonist) ([2]; intracellular cAMP)
6 | O=C(O)Cn1c(=O)n(C2CCN(S(=O)(=O)c3ccc(Cl)cc3Cl)CC2)c2cccnc21 [Compound 134, 2-(1-(1-(2,4-dichlorophenylsulfonyl)piperidin-4-yl)-2-oxo-1H-imidazo[4,5-b]pyridin-3(2H)-yl)acetic acid] | > 30 |  | 
7 | O=C(O)Cn1c(=O)n(C2CCN(S(=O)(=O)c3ccccc3Cl)CC2)c2ccncc21 [Compound 141, 2-(1-(1-(2-chlorophenylsulfonyl)piperidin-4-yl)-2-oxo-1H-imidazo[4,5-c]pyridin-3(2H)-yl)acetic acid] | > 30 |  | 
8 | O=C(O)Cn1c(=O)n(C2CCN(S(=O)(=O)c3ccc(Cl)cc3Cl)CC2)c2ccncc21 [Compound 142, 2-(1-(1-(2,4-dichlorophenylsulfonyl)piperidin-4-yl)-2-oxo-1H-imidazo[4,5-c]pyridin-3(2H)-yl)acetic acid] | > 30 |  | 
9 | Cc1cc(F)ccc1S(=O)(=O)N1CCC(n2c(=O)n(CC(=O)O)c3cnccc32)CC1 [Compound 144, 2-(1-(1-(4-fluoro-2-methylphenylsulfonyl)piperidin-4-yl)-2-oxo-1H-imidazo[4,5-c]pyridin-3(2H)-yl)acetic acid] | > 30 |  | 
10 | CS(=O)(=O)c1ccccc1S(=O)(=O)N1CCC(n2c(=O)n(CC(=O)O)c3ccncc32)CC1 [Compound 149, 2-(3-(1-(2-(methylsulfonyl)phenylsulfonyl)piperidin-4-yl)-2-oxo-2,3-dihydro-1H-imidazo[4,5-c]pyridin-1-yl)acetic acid] | 1 to 10 |  | 
11 | O=C(O)Cn1c(=O)n(C2CCN(S(=O)(=O)c3ccc(F)cc3Cl)CC2)c2cnccc21 [Compound 150, 2-(3-(1-(2-chloro-4-fluorophenylsulfonyl)piperidin-4-yl)-2-oxo-2,3-dihydro-1H-imidazo[4,5-c]pyridin-1-yl)acetic acid] | > 30 |  | 

Source: patent publication US20110190336A1, “AZABENZIMIDAZOLONES” (CARA THERAPEUTICS, INC., priority 2008, published 2011)
